These results are taken from patent US12685715B2, “Compositions, methods of treatment, and containers including compositions” (University of Florida Research Foundation, Inc., priority 2018, dated 2026).

Series [1] can be described thus: Cysteamine degradation in anti-oxidant formulations, vials exposed to atmospheric oxygen (UV-vis). It counts as physicochemical.
Method: All formulations containing hydrophilic components (SUR, CAT) were prepared by stirring at room temperature till dissolution. All formulations were tested for pH and adjusted to 7.4 if required. For each formulation, 20 mL of liquid was placed into a 22 mL, flat bottom, 28 mm diameter, glass vial (Fisher Scientific). Each formulation was purged with nitrogen gas for two hours to minimize dissolved oxygen. After purging, 2.0±0.1 mg cysteamine was added to each formulation to achieve a concentration of 0.1 mg mL^−1 which is about one-fourth of the concentration in the commercial formulation. We are interested in the relative changes in degradation rates by addition of anti-oxidants so reducing concentration will not be a significant factor. […] The vials were then left exposed to atmospheric oxygen to ensure that the degradation rates were not limited by availability of oxygen. The formulations were periodically sampled for measurement of UV spectra in 190-350 nm range (Thermo Scientific™ GENESYS™ 10S UV-Vis Spectrophotometer). The spectra of cysteamine and the oxidation product cystamine are sufficiently different so the combined spectra obtained from the samples can be separated via a least square fit to yield the concentrations of both components. After analyzing, the solution was returned to the vial to conserve total volume. […]
A short description of series [2]: Cysteamine degradation in eye drop bottles with OMAC film barrier / combined approach, drops withdrawn periodically. The series is classed as physicochemical. Particulars: calculated, 30 μL drop.
Method: To explore the effect of any alterations in packaging, it was considered more realistic to use a commercial eye drop bottle. […] As these systems were in a nearly closed system, evaporation was not a concern, so they could be run for longer durations of time compared to the anti-oxidant experiments performed open to atmosphere. At certain time intervals, the screw cap was removed, and the bottle was squeezed to eject one drop. The mass of the drop was measured, and the drop was diluted 100 fold by PBS. This diluted solution was then measured by UV-vis spectrophotometry to determine the degradation of cysteamine.
Catalase (0.15%) was added to the cysteamine solution, which was nitrogen purged for an additional half hour. The solution was then placed in the bottle and topped with a 1.0 cm layer of 50% (v/v) soybean oil and 50% vitamin E. The bottle was then capped and tested for degradation of cysteamine while periodically withdrawing eye drop samples, as described in section 2.2.2.2.

For `NCCS` [cysteamine, Cysteamine], the degradation rate was 126 ± 4 µg/h in series [1] (0.1 mg mL^−1 of cysteamine) and 132 ± 15 µg/h in series [1] (4.4 mg mL^−1 of cysteamine). Also, the “degradation rate from air entering the bottle after each drop” value in series [2] is “roughly 10 μg/hr”.
